Columns and labels:
[1] = Dynamic vapor adsorption (DVS), hygroscopicity; assay type: physicochemical; conditions: 0-90% RH, 25° C.
Method: Dynamic vapor adsorption: the hygroscopicity was evaluated with a dynamic vapor adsorption (DVS) instrument (IGAsorp, Hiden Isochema, Warrington, England) at room temperature. The water adsorption/desorption was studied as a function of relative humidity (RH) in the range of 0-90% at 25° C. The relative humidity in the chamber was made to increase by 10% RH, and the humidity was retained until the humidity state of the atmosphere and the weight variation of solid achieved equilibrium. The equilibration test was continued until the test was passed or failed 5 or 10 hours later. At this time point, RH increased by 10%, and the absorption process was repeated until the RH achieved to 90% RH and the humidity state achieved equilibrium. During the test, the moisture sorption was being monitored. For the desorption, the relative humidity was decreased in a similar manner to measure a perfect adsorption/desorption cycle. The cycle was repeated as appropriate. All the experiments were operated in dm/dt mode (weight variation over time) to determine each equilibrating endpoint. About 5-10 mg of the solid was used. The date analyses were carried out with Hisorp v4.02 (Hiden Isochema, Warrington, England).

[2] = Thermogravimetric analysis (TGA); assay type: physicochemical; conditions: until melting temperature
Method: Thermogravimetric analysis: the thermogravimetric analysis (TGA) was carried out with a TGA instrument (TGA Q500, TA Instruments, New Castle, Del., USA). For each trial, about 1-10 mg of the solid sample was put in an open aluminium pot, and heated at a rate of 5-10° C./min under a nitrogen purge of 60 mL/min. The data analysis was carried out with Universal Analysis 2000 Version 4.1D (TA Instruments, New Castle, Del., USA).

[3] = Differential scanning calorimetry (DSC); assay type: physicochemical
Method: Differential scanning calorimetry: the thermal characteristic was evaluated with a differential scanning calorimetry (DSC) instrument (DSCQ1000, TA Instruments, New Castle, Del., USA). For each trial, about 1-10 mg of the solid sample was put in a standard aluminium pot aerated with a pinhole, and heated at a rate of 5-10° C./min under a nitrogen purge of 50 mL/min. The data analysis was carried out with Universal Analysis 2000 Version 4.1D (TA Instruments, New Castle, Del., USA).

[4] = Shaking suspensions of crystalline forms in solvents (form conversion); assay type: physicochemical; conditions: shaking forms I-III in several kinds of solvents for 9-11 days
Method: Crystalline Example 13 of form III can be prepared by shaking a suspension of Example 13 in an organic solvent (e.g. ethanol, chloroform, acetonitrile, tetrahydrofuran, ethyl acetate, acetone, and tetrahydrofuran/heptane mixture (1:1)) at about 50° C. for 9-11 days. Or, it can be prepared by shaking a suspension of Example 13 in an organic solvent (e.g. acetonitrile, ethyl acetate, acetone, acetone/water mixture (1:1), and tetrahydrofuran/heptane mixture (1:1)) at about 25° C. for 9-11 days. Or, it can be prepared by shaking a suspension of a mixture of forms I and II of Example 13 in an organic solvent (e.g. ethanol, 2-propanol, chloroform, acetonitrile, tetrahydrofuran, ethyl acetate, acetone, and tetrahydrofuran/heptane mixture (1:1)) at about 50° C. for 9-11 days. Or, it can be prepared by shaking a suspension of a mixture of forms I and II of Example 13 in an organic solvent (e.g. 2-propanol, chloroform, acetonitrile, tetrahydrofuran, ethyl acetate, acetone, methanol/water mixture (1:1), 2-propanol/water mixture (1:1), acetone/water mixture (1:1), and tetrahydrofuran/heptane mixture (1:1)) at about 25° C. for 9-11 days. Or, it can be prepared by heating a solution of Example 13 in tert-butyl methyl ether at about 80° C. for about one hour, and leaving the solution to stand at room temperature for a day. […]

[5] = tested on: oxaliplatin chemotherapy-induced peripheral neuropathy model; test: Anti-allodynia effect in chemotherapy-induced peripheral neuropathy model (acetone test); assay type: in vivo, rat; conditions: Example 13 100 mg/kg oral once a day 17 times; duloxetine 30 mg/kg oral single
From the text: As one of chemotherapy-induced peripheral neuropathy, sensory disturbance due to neuropathy caused by a platinating agent that is an anticancer agent such as cisplatin and oxaliplatin is known, and the symptom is difficult to be recovered even after the medication is discontinued. The therapeutic effect for sensory disturbance caused by repetitive administration of oxaliplatin was studied in the present test.
To male Crl: CD (SD) rats (7 weeks old) (CHARLES RIVER LABORATORIES JAPAN, INC.), oxaliplatin (5 mg/kg) was intraperitoneally administered for the two consecutive days in a week, totally 6 times, to prepare chemotherapy-induced peripheral neuropathy models. The compound of Example 13 (100 mg/kg) was repeatedly orally administered once a day, totally 17 times. […] In the acetone test, 0.1 mL of acetone was sprayed to the foot sole of the rat hind paw, and the reaction was evaluated according a scoring (Cold Score). When there was no reaction for 20 seconds after spraying acetone, Score 0 was recorded and the observation was stopped. When there was any reaction for the 20 seconds, the observation was continued until 40 seconds after spraying, and the score was recorded according to the evaluation scale. The acetone spray was done twice each for right and left hind paws, and the total score was calculated. […]

C[C@H](c1noc2ccccc12)S(N)(=O)=O [Example 13 form I, (1R)-1-(1,2-benzoxazol-3-yl)ethane-1-sulfonamide]
weight variation in DVS [1]: ≤ 1%
weight reduction in TGA [2]: no weight reduction
crystalline stability (DSC) [3]: high

C[C@H](c1noc2ccccc12)S(N)(=O)=O [Example 13 form III, (1R)-1-(1,2-benzoxazol-3-yl)ethane-1-sulfonamide]
relative stability of crystalline forms [4]: most stable form

CNCC[C@H](Oc1cccc2ccccc12)c1cccs1 [duloxetine, reference compound]
Cold Score in acetone test [5]: significantly lower Cold Score
